Like-named read-outs stand apart in the source and are kept apart here.
Key:
[1] = test system: NL4-3 HIV-1 strain; assay: Multiple-round infection assay in MT4 cells, NL4-3; assay type: cell-based; conditions: MT4 cells
[2] = test system: HXB2 HIV-1 strain; assay: Multiple-round infection assay in MT4 cells, HXB2; assay type: cell-based; conditions: Human immunodeficiency virus 1, HXB2; multiple-round infection, MT4 cells; mean ± SD, n > 5; read-out: EC50 HXB2
Experimental: Antiretroviral activity of BDM-2 and its analogs was first evaluated in lymphoblastoid cell line MT4 and in primary human T lymphocytes using NL4-3 and HXB2 laboratory HIV-1 isolates.
(§1) MT4 cells growing exponentially at the density of 10^6/mL were infected with HIV-1 strain NL4-3 at a multiplicity of infection (MOI) of 0.001 for 2 h in the presence of different concentrations of compounds, and the CellTiter-Glo luminescent reagent (Promega) was used to quantify cell viability as described previously ([12]).

[3] = test system: HIV-1 strains resistant to INSTIs, NRTIs, NNRTIs or PIs; assay type: cell-based
Experimental: To this end, we used both recombinant viruses constructed by introducing described drug resistance mutations into NL4-3 HIV-1 clone as well as drug-resistant clinical HIV-1 isolates.
as §1

[4] = test system: VSV-G-pseudotyped NL4-3Δenv-luc; assay: microbe, parasite or virus in culture; assay type: cell-based, HIV-1
[5] = Cytotoxicity assay in MT4 cells; assay type: cell-based; conditions: human, MT4 cells (proliferating human T-cell line), CellTiter-Glo
Text: Growth inhibition was monitored in a proliferating human T-cell line (MT4) with different concentrations of compounds, using the CellTiter-Glo luminescent reagent (Promega), as previously described ([12]).

[6] = test system: primary HIV-1 isolates with polymorphisms at IN positions 124 and 125; assay: Multiple-round infection of MT4 cells with primary HIV-1 isolates polymorphic at IN positions 124 and 125; assay type: cell-based; conditions: primary isolate
Experimental: Next, we evaluated the potency of the BDM-2 series of INLAIs against several primary HIV-1 isolates with polymorphisms at IN positions 124 and 125.
as §1

[7] = test system: lab-adapted and clinical HIV-1 isolates; assay: Infection assays in primary T CD4+ lymphocytes; assay type: cell-based; conditions: Human immunodeficiency virus 1, Lymphocyte
[8] = test system: recombinant NL4-3 viruses with polymorphisms at IN positions 124 and 125; assay: Multiple-round infection of MT4 cells with recombinant NL4-3 viruses polymorphic at IN positions 124 and 125; assay type: cell-based, HIV-1
Text: Located on the HIV-1 IN CCD dimerization interface, the principal INLAI binding pocket overlaps with a hot spot of amino acid sequence polymorphism involving IN residues 124 and 125 ([16]). To test if the new INLAIs maintained antiviral activity against major polymorphisms, we introduced all major combinations of residues found in circulating HIV-1 strains at positions 124 and 125 into NL4-3 HIV-1 molecular clone. In total, we evaluated 15 such combinations that collectively covered 98% of all HIV-1 clade polymorphisms involving these positions ([48]). To gauge effects on the antiviral activity, we calculated the EC50 fold change (FC) relative to wild type NL4-3 HIV-1 strain that features Thr124 and Thr125 (TT; specific polymorphisms are referred to by a single letter amino acid code).
as §1

[9] = INSTI-resistant, NL4-3 background
[10] = INSTI-resistant, primary patient-derived strain

SMILES: C[C@@H]1CCO[C@H]2Cn3cc(C(=O)NCc4ccc(F)cc4F)c(=O)c(O)c3C(=O)N12 [DTG, dolutegravir, reference compound]
- EC90 ([1]; Human immunodeficiency virus 1, NL43, multiple-round infection, from dose response curves, read-out: EC90 NL4-3): 6.3 ± 4.4 nM
- EC50 ([1]; Human immunodeficiency virus 1, NL43, multiple-round infection, mean ± SD, n > 5, read-out: EC50 NL4-3): 2.7 ± 1.3 nM
- Selectivity index CC50/EC50 NL4-3 [1]: 18,888
- EC50 [2]: 1.9 ± 1 nM
- Fold change in EC50 relative to NL4-3, G140S [3, 9]: 0.6
- Fold change in EC50 relative to NL4-3, G140S/Q148H [3, 9]: 2
- Fold change in EC50 relative to NL4-3, N155H [3, 9]: 0.3
- Fold change in EC50 relative to NL4-3, Q148H [3, 9]: 0.3
- Fold change in EC50 relative to NL4-3, Y143R [3, 9]: 0.4
- Fold change in EC50 relative to NL4-3, E92Q/N155H (pat.) [3, 10]: 1
- Fold change in EC50 relative to NL4-3, G140S/Q148H (pat.) [3, 10]: 3
- Fold change in EC50 relative to NL4-3, T97A/N155H (pat.) [3, 10]: 3
- Fold change in EC50 relative to NL4-3, NLAY351717 ([3]; NRTI-resistant clone): 0.4
- Fold change in EC50 relative to NL4-3, NLAY351753 ([3]; NRTI/NNRTI-resistant clone): 1
- Fold change in EC50 relative to NL4-3, K103N/Y181C ([3]; NRTI/NNRTIs group, NL4-3 background): 0.3
- Fold change in EC50 relative to NL4-3, ARP-4595 ([3]; PI-resistant virus): 1
- Fold change in EC50 relative to NL4-3, ARP-4596 ([3]; PI-resistant virus): 0.5
- Fold change in EC50 relative to NL4-3, ARP-11801 ([3]; PI-resistant virus): 1
- Fold change in EC50 relative to NL4-3, ARP-11803 ([3]; PI-resistant virus): 1
- Fold change in EC50 relative to NL4-3, ARP-11807 ([3]; PI-resistant virus): 2
- Fold change in EC50 relative to NL4-3, ARP-11808 ([3]; PI-resistant virus): 1
- EC50 ratio (single/multiple-round infection) [4]: 0.16
- EC50 ([4]; Human immunodeficiency virus 1, NL43, MT4, read-out: EC50 in single-round infection): 0.44 ± 0.13 nM
- CC50 [5]: 51000 ± 28000 nM
- Fold change in EC50 relative to parental NL4-3, CAM2BBY (CRF02) ([6]; IN 124/125 AA): 1
- Fold change in EC50 relative to parental NL4-3, E0836M4 (D) ([6]; IN 124/125 AA): 2
- Fold change in EC50 relative to parental NL4-3, KER2008 (A) ([6]; IN 124/125 AA): 1
- Fold change in EC50 relative to parental NL4-3, NP1525 (CRF01) ([6]; IN 124/125 AA): 2
- Fold change in EC50 relative to parental NL4-3, NP1695 (CRF02) ([6]; IN 124/125 AA): 2
- Fold change in EC50 relative to parental NL4-3, TZA125 (C) ([6]; IN 124/125 AA): 2
- Fold change in EC50 relative to parental NL4-3, KSM4030 (A) ([6]; IN 124/125 GA): 2
- Fold change in EC50 relative to parental NL4-3, vGA (C) ([6]; IN 124/125 GA): 2
- Fold change in EC50 relative to parental NL4-3, 99ET14 (C) ([6]; IN 124/125 NA): 2
- Fold change in EC50 relative to parental NL4-3, NP1538 (B) ([6]; IN 124/125 NA): 1
- Fold change in EC50 relative to parental NL4-3, vNA_1 (B) ([6]; IN 124/125 NA): 2
- Fold change in EC50 relative to parental NL4-3, vNA_2 (CRF02) ([6]; IN 124/125 NA): 2
- Fold change in EC50 relative to parental NL4-3, vNV (B) ([6]; IN 124/125 NV): 1
- Fold change in EC50 relative to parental NL4-3, vSA_1 (B) ([6]; IN 124/125 SA): 1
- Fold change in EC50 relative to parental NL4-3, vSA_2 (CRF02) ([6]; IN 124/125 SA): 2
- Fold change in EC50 relative to parental NL4-3, vTA_1 (B) ([6]; IN 124/125 TA): 1
- Fold change in EC50 relative to parental NL4-3, vTA_2 (CRF02) ([6]; IN 124/125 TA): 1
- EC50 ([7]; read-out: EC50 33913N (B)): 0.35 ± 0.42 nM
- EC50 ([7]; read-out: EC50 HXB2 (B)): 0.17 ± 0.01 nM
- EC50 ([7]; read-out: EC50 KER2008 (A)): 0.4 ± 0.21 nM
- EC50 ([7]; read-out: EC50 NL4-3 (B)): 0.53 ± 0.16 nM
- EC50 ([7]; read-out: EC50 NP1525 (CRF01_AE)): 0.21 ± 0.09 nM
- EC50 ([7]; read-out: EC50 NP1538 (B)): 0.29 ± 0.13 nM
- Fold change in EC50 relative to parental NL4-3, AA ([8]; recombinant NL4-3, IN 124/125 AA): 1
- Fold change in EC50 relative to parental NL4-3, AM ([8]; recombinant NL4-3, IN 124/125 AM): 2
- Fold change in EC50 relative to parental NL4-3, AT ([8]; recombinant NL4-3, IN 124/125 AT): 1
- Fold change in EC50 relative to parental NL4-3, AV ([8]; recombinant NL4-3, IN 124/125 AV): 2
- Fold change in EC50 relative to parental NL4-3, GA ([8]; recombinant NL4-3, IN 124/125 GA): 2
- Fold change in EC50 relative to parental NL4-3, GT ([8]; recombinant NL4-3, IN 124/125 GT): 2
- Fold change in EC50 relative to parental NL4-3, NA ([8]; recombinant NL4-3, IN 124/125 NA): 1
- Fold change in EC50 relative to parental NL4-3, NT ([8]; recombinant NL4-3, IN 124/125 NT): 1
- Fold change in EC50 relative to parental NL4-3, NV ([8]; recombinant NL4-3, IN 124/125 NV): 2
- Fold change in EC50 relative to parental NL4-3, SA ([8]; recombinant NL4-3, IN 124/125 SA): 1
- Fold change in EC50 relative to parental NL4-3, ST ([8]; recombinant NL4-3, IN 124/125 ST): 2
- Fold change in EC50 relative to parental NL4-3, TA ([8]; recombinant NL4-3, IN 124/125 TA): 1
- Fold change in EC50 relative to parental NL4-3, TM ([8]; recombinant NL4-3, IN 124/125 TM): 2
- Fold change in EC50 relative to parental NL4-3, TV ([8]; recombinant NL4-3, IN 124/125 TV): 2
